Experimental data: ChEMBL document CHEMBL5390204, “Persephacin Is a Broad-Spectrum Antifungal Aureobasidin Metabolite That Overcomes Intrinsic Resistance in Aspergillus fumigatus” (J Nat Prod, 2023)
In brackets after ≈: the same amount, converted by molar mass.

What was measured:
Candida parapsilosis [1] = test: Antifungal activity against Candida parapsilosis ATCC 22019 (Y-12969) assessed as reduction in fungal growth incubated for 48 hrs by microplate reader analysis; format: functional; settings: Lodderomyces parapsilosis
Candida albicans [2] = test: Antifungal activity against Candida albicans ATCC 10231 assessed as reduction in fungal growth incubated for 48 hrs by microplate reader analysis; format: functional
Candida albicans [3] = test: Antifungal activity against Candida albicans SC5314 assessed as reduction in fungal growth incubated for 48 hrs by microplate reader analysis; format: functional
Pichia kudriavzevii [4] = test: Antifungal activity against Candida krusei ATCC 6258 (Y-7179) assessed as reduction in fungal growth incubated for 48 hrs by microplate reader analysis; format: functional
Candida tropicalis [5] = test: Antifungal activity against Candida tropicalis ATCC750 (Y-12699) assessed as reduction in fungal growth incubated for 48 hrs by microplate reader analysis; format: functional
Cryptococcus neoformans [6] = test: Antifungal activity against Cryptococcus neoformans H99 assessed as reduction in fungal growth incubated for 48 hrs by microplate reader analysis; format: functional
Aspergillus fumigatus [7] = test: Antifungal activity against Aspergillus fumigatus MYA 3627 assessed as reduction in fungal growth incubated for 48 hrs by microplate reader analysis; format: functional
Aspergillus fumigatus [8] = test: Antifungal activity against Aspergillus fumigatus NRRL6113 assessed as reduction in fungal growth incubated for 48 hrs by microplate reader analysis; format: functional
Aspergillus fumigatus [9] = test: Antifungal activity against Aspergillus fumigatus NRRL5109 assessed as reduction in fungal growth incubated for 48 hrs by microplate reader analysis; format: functional
Aspergillus flavus [10] = test: Antifungal activity against Aspergillus flavus NRRL485 assessed as reduction in fungal growth incubated for 48 hrs by microplate reader analysis; format: functional
Aspergillus niger [11] = test: Antifungal activity against Aspergillus niger FGSC A732 assessed as reduction in fungal growth incubated for 48 hrs by microplate reader analysis; format: functional
Aspergillus terreus [12] = test: Antifungal activity against Aspergillus terreus 191A6 assessed as reduction in fungal growth incubated for 48 hrs by microplate reader analysis; format: functional
Curvularia lunata [13] = test: Antifungal activity against Curvularia lunata NRRL6409 assessed as reduction in fungal growth incubated for 48 hrs by microplate reader analysis; format: functional
Rhizopus arrhizus [14] = test: Antifungal activity against Rhizopus oryzae FGSC 9543 assessed as reduction in fungal growth incubated for 48 hrs by microplate reader analysis; format: functional
Mucor circinelloides [15] = test: Antifungal activity against Mucor circinelloides 235C7 assessed as reduction in fungal growth incubated for 48 hrs by microplate reader analysis; format: functional
Fusarium solani [16] = test: Antifungal activity against Fusarium solani 243G2 assessed as reduction in fungal growth incubated for 48 hrs by microplate reader analysis; format: functional
Paecilomyces lilacinus [17] = test: Antifungal activity against Paecilomyces lilacinus 165E10 assessed as reduction in fungal growth incubated for 48 hrs by microplate reader analysis; format: functional; settings: Purpureocillium lilacinum
Hamigera insecticola [18] = test: Antifungal activity against Hamigera insecticola NRRL35442 assessed as reduction in fungal growth incubated for 48 hrs by microplate reader analysis; format: functional
Candida albicans [19] = test: Antifungal activity against Candida albicans SC5314 assessed as reduction in fungal viability incubated for 48 hrs by microplate reader analysis; format: functional
Candida albicans [20] = test: Antifungal activity against Candida albicans ATCC 10231 assessed as reduction in fungal viability incubated for 48 hrs by microplate reader analysis; format: functional
Candida parapsilosis [21] = test: Antifungal activity against Candida parapsilosis ATCC 22019 (Y-12969) assessed as reduction in fungal viability incubated for 48 hrs by microplate reader analysis; format: functional
Candida tropicalis [22] = test: Antifungal activity against Candida tropicalis ATCC750 (Y-12699) assessed as reduction in fungal viability incubated for 48 hrs by microplate reader analysis; format: functional
Pichia kudriavzevii [23] = test: Antifungal activity against Candida krusei ATCC 6258 (Y-7179) assessed as reduction in fungal viability incubated for 48 hrs by microplate reader analysis; format: functional
Cryptococcus neoformans [24] = test: Antifungal activity against Cryptococcus neoformans H99 assessed as reduction in fungal viability incubated for 48 hrs by microplate reader analysis; format: functional
Aspergillus fumigatus [25] = test: Antifungal activity against Aspergillus fumigatus MYA 3627 assessed as reduction in fungal viability incubated for 48 hrs by microplate reader analysis; format: functional
Aspergillus fumigatus [26] = test: Antifungal activity against Aspergillus fumigatus NRRL6113 assessed as reduction in fungal viability incubated for 48 hrs by microplate reader analysis; format: functional
Aspergillus fumigatus [27] = test: Antifungal activity against Aspergillus fumigatus NRRL5109 assessed as reduction in fungal viability incubated for 48 hrs by microplate reader analysis; format: functional
Aspergillus flavus [28] = test: Antifungal activity against Aspergillus flavus NRRL485 assessed as reduction in fungal viability incubated for 48 hrs by microplate reader analysis; format: functional
Aspergillus niger [29] = test: Antifungal activity against Aspergillus niger FGSC A732 assessed as reduction in fungal viability incubated for 48 hrs by microplate reader analysis; format: functional
Aspergillus terreus [30] = test: Antifungal activity against Aspergillus terreus 191A6 assessed as reduction in fungal viability incubated for 48 hrs by microplate reader analysis; format: functional
Curvularia lunata [31] = test: Antifungal activity against Curvularia lunata NRRL6409 assessed as reduction in fungal viability incubated for 48 hrs by microplate reader analysis; format: functional
Rhizopus arrhizus [32] = test: Antifungal activity against Rhizopus oryzae FGSC 9543 assessed as reduction in fungal viability incubated for 48 hrs by microplate reader analysis; format: functional
Mucor circinelloides [33] = test: Antifungal activity against Mucor circinelloides 235C7 assessed as reduction in fungal viability incubated for 48 hrs by microplate reader analysis; format: functional
Fusarium solani [34] = test: Antifungal activity against Fusarium solani 243G2 assessed as reduction in fungal viability incubated for 48 hrs by microplate reader analysis; format: functional
Paecilomyces lilacinus [35] = test: Antifungal activity against Paecilomyces lilacinus 165E10 assessed as reduction in fungal viability incubated for 48 hrs by microplate reader analysis; format: functional, Purpureocillium lilacinum
Hamigera insecticola [36] = test: Antifungal activity against Hamigera insecticola NRRL35442 assessed as reduction in fungal viability incubated for 48 hrs by microplate reader analysis; format: functional

SMILES: CCC(C)n1ncn(-c2ccc(N3CCN(c4ccc(OCC5COC(Cn6cncn6)(c6ccc(Cl)cc6Cl)O5)cc4)CC3)cc2)c1=O (centres undefined) [ITRACONAZOLE]
- MFC (Candida parapsilosis [1]): 5 µM (≈ 3.53 µg/mL)
- MIC80 (Candida parapsilosis [1]): 0.6 µM (≈ 0.423 µg/mL)
- MFC (Candida albicans [2]): > 10 µM
- MIC80 (Candida albicans [2]): 0.06 µM (≈ 0.0423 µg/mL)
- MFC (Candida albicans [3]): > 10 µM
- MIC80 (Candida albicans [3]): 0.135 µM (≈ 0.0953 µg/mL)
- MFC (Pichia kudriavzevii [4]): 2.5 µM (≈ 1.76 µg/mL)
- MIC80 (Pichia kudriavzevii [4]): 0.6 µM (≈ 0.423 µg/mL)
- MFC (Candida tropicalis [5]): > 10 µM
- MIC80 (Candida tropicalis [5]): 0.6 µM (≈ 0.423 µg/mL)
- MFC (Cryptococcus neoformans [6]): > 10 µM
- MIC80 (Cryptococcus neoformans [6]): 0.6 µM (≈ 0.423 µg/mL)
- MFC (Aspergillus fumigatus [7]): > 10 µM
- MIC80 (Aspergillus fumigatus [7]): 5 µM (≈ 3.53 µg/mL)
- MFC (Aspergillus fumigatus [8]): > 10 µM
- MIC80 (Aspergillus fumigatus [8]): 1.3 µM (≈ 0.917 µg/mL)
- MFC (Aspergillus fumigatus [9]): 10 µM (≈ 7.06 µg/mL)
- MIC80 (Aspergillus fumigatus [9]): 1.3 µM (≈ 0.917 µg/mL)
- MFC (Aspergillus flavus [10]): 0.6 µM (≈ 0.423 µg/mL)
- MIC80 (Aspergillus flavus [10]): 0.2 µM (≈ 0.141 µg/mL)
- MFC (Aspergillus niger [11]): 5 µM (≈ 3.53 µg/mL)
- MIC80 (Aspergillus niger [11]): 2.5 µM (≈ 1.76 µg/mL)
- MFC (Aspergillus terreus [12]): 2.5 µM (≈ 1.76 µg/mL)
- MIC80 (Aspergillus terreus [12]): 0.6 µM (≈ 0.423 µg/mL)
- MFC (Curvularia lunata [13]): 5 µM (≈ 3.53 µg/mL)
- MIC80 (Curvularia lunata [13]): 2.5 µM (≈ 1.76 µg/mL)
- MFC (Rhizopus arrhizus [14]): 0.6 µM (≈ 0.423 µg/mL)
- MIC80 (Rhizopus arrhizus [14]): 0.6 µM (≈ 0.423 µg/mL)
- MFC (Mucor circinelloides [15]): > 10 µM
- MIC80 (Mucor circinelloides [15]): 10 µM (≈ 7.06 µg/mL)
- MFC (Fusarium solani [16]): 5 µM (≈ 3.53 µg/mL)
- MIC80 (Fusarium solani [16]): 2.5 µM (≈ 1.76 µg/mL)
- MFC (Paecilomyces lilacinus [17]): 1.3 µM (≈ 0.917 µg/mL)
- MIC80 (Paecilomyces lilacinus [17]): 2.5 µM (≈ 1.76 µg/mL)
- MFC (Hamigera insecticola [18]): 1.35 µM (≈ 0.953 µg/mL)
- MIC80 (Hamigera insecticola [18]): 0.3 µM (≈ 0.212 µg/mL)
- MFC<=99.9 (Candida albicans [19]): >10 µM
- MFC<=99.9 (Candida albicans [20]): >10 µM
- MFC<=99.9 (Candida parapsilosis [21]): 5 µM (≈ 3.53 µg/mL)
- MFC<=99.9 (Candida tropicalis [22]): >10 µM
- MFC<=99.9 (Pichia kudriavzevii [23]): 2.5 µM (≈ 1.76 µg/mL)
- MFC<=99.9 (Cryptococcus neoformans [24]): >10 µM
- MFC<=99.9 (Aspergillus fumigatus [25]): >10 µM
- MFC<=99.9 (Aspergillus fumigatus [26]): >10 µM
- MFC<=99.9 (Aspergillus fumigatus [27]): 10 µM (≈ 7.06 µg/mL)
- MFC<=99.9 (Aspergillus flavus [28]): 0.6 µM (≈ 0.423 µg/mL)
- MFC<=99.9 (Aspergillus niger [29]): 5 µM (≈ 3.53 µg/mL)
- MFC<=99.9 (Aspergillus terreus [30]): 2.5 µM (≈ 1.76 µg/mL)
- MFC<=99.9 (Curvularia lunata [31]): 5 µM (≈ 3.53 µg/mL)
- MFC<=99.9 (Rhizopus arrhizus [32]): 0.6 µM (≈ 0.423 µg/mL)
- MFC<=99.9 (Mucor circinelloides [33]): >10 µM
- MFC<=99.9 (Fusarium solani [34]): 5 µM (≈ 3.53 µg/mL)
- MFC<=99.9 (Paecilomyces lilacinus [35]): 1.3 µM (≈ 0.917 µg/mL)
- MFC<=99.9 (Hamigera insecticola [36]): 1.35 µM (≈ 0.953 µg/mL)
